US20260232658A1, “AZETIDINYL BENZOXAZOLE COMPOUNDS AND THEIR USE AS MER AND AXL INHIBITORS” (DONG-A ST CO., LTD., priority 2022, published 2026)

What was measured:
human MER (528-end) = molecular target: T1, human MER (528-end) (Homo sapiens, UniProt Q12866); assay: HTRF kinase activity biochemical assay, MER; settings: recombinant kinase, 10 uM ATP, 30 minutes pre-incubation; read-out: HTRF MERTK IC50;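 further: phosphorylation of a biotin-tagged tyrosine kinase substrate detected by Eu3+-cryptate antibody and streptavidin-XL665 time-resolved fluorescence, read after 1 h at room temperature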
T1 construct: human MER (528-end); purchased Carnabio, Japan
T1 sequence (Q12866 528-999 limits assumed): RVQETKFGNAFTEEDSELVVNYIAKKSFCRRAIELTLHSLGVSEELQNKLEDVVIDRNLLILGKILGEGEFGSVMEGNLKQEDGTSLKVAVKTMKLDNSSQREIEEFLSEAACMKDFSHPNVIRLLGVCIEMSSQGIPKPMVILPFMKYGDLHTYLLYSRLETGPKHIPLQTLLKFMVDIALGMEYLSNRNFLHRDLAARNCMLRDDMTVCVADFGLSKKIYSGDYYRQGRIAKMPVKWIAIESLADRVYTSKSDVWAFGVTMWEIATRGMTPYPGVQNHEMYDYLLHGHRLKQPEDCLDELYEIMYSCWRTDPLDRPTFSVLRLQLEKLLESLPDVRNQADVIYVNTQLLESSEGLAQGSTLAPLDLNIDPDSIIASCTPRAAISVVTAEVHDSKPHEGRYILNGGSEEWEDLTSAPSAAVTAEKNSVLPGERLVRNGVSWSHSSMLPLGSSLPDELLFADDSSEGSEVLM

human AXL (473-end) = molecular target: T2, human AXL (473-end) (Homo sapiens, UniProt P30530); assay: HTRF kinase activity biochemical assay, AXL; settings: recombinant kinase, 10 uM ATP, 30 minutes pre-incubation; read-out: HTRF AXL IC50;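 further: phosphorylation of a biotinylated tyrosine kinase substrate detected via Eu3+-cryptate anti-TK antibody and streptavidin-XL665, fluorescence read after a 1 h incubation at room temperature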
T2 construct: human AXL (473-end); purchased SignalChem, Canada
T2 sequence (P30530 473-894 limits assumed): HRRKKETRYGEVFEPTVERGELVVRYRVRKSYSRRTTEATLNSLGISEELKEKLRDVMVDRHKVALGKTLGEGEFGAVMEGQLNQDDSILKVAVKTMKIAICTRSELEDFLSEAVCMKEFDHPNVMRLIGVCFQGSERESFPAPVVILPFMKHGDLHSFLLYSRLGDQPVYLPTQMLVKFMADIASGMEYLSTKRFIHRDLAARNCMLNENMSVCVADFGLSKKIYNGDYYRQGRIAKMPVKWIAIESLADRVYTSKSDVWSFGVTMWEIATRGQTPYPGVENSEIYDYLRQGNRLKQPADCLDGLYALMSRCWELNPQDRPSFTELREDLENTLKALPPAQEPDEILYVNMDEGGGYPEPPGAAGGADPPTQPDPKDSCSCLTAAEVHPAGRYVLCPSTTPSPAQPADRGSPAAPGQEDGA

TYRO3 (455-end) = molecular target: T3, TYRO3 (455-end) (Homo sapiens, UniProt Q06418); assay: HTRF kinase activity biochemical assay, TYRO3; settings: recombinant kinase, 10 uM ATP, 30 minutes pre-incubation; read-out: HTRF TYRO IC50;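 further: biotinylated tyrosine kinase substrate phosphorylation detected via streptavidin-XL665 and Eu3+-cryptate anti-phospho antibody time-resolved fluorescence, read after 1 h detection at room temperature, 384-well format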
T3 construct: TYRO3 (455-end); purchased SignalChem, Canada
T3 sequence (Q06418 455-890 limits assumed): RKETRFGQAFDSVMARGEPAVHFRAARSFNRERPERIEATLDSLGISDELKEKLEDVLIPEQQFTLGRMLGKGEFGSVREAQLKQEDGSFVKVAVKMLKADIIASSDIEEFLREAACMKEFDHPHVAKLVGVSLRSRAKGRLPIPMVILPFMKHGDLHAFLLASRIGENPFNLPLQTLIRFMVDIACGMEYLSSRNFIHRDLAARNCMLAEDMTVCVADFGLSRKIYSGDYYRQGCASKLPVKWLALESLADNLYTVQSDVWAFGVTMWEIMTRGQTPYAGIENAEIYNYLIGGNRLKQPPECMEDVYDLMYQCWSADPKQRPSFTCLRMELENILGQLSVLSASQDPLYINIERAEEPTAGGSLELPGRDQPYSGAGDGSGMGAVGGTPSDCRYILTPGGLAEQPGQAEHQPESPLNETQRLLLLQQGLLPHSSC

MC-38 cells = assay: MC-38 Efficacy Assay (tumor growth inhibition); format: in vivo, Female C57BL/6 mice; settings: once a day for 21 days, subcutaneous MC-38 tumors in C57BL/6 mice

IC50 (human MER (528-end))	IC50 (human AXL (473-end))	IC50 (TYRO3 (455-end))	Structure (SMILES)	% TGI (dose) (MC-38 cells; 10 mg/kg/d)	% TGI (dose) (MC-38 cells; 15 mg/kg/d)	% TGI (dose) (MC-38 cells; 30 mg/kg/d)
3 nM	11 nM	360 nM	CC(C)(O)Cn1cc(Nc2ncc(C3CN(c4nc5ccccc5o4)C3)nc2C(N)=O)cn1 [Example 30, 6-[1-(1,3-benzoxazol-2-yl)azetidin-3-yl]-3-{[1-(2-hydroxy-2-methylpropyl)-1H-pyrazol-4-yl]amino}pyrazine-2-carboxamide]	33%	–	–
33 nM	54 nM	3300 nM	Cn1cc(Nc2ncc(C3CN(c4nc5ccc(OCCC(C)(C)OP(=O)(O)O)cc5o4)C3)nc2C(N)=O)cn1 [Example 77, 4-{[2-(3-{6-carbamoyl-5-[(1-methyl-1H-pyrazol-4-yl)amino]pyrazin-2-yl}azetidin-1-yl)-1,3-benzoxazol-6-yl]oxy}-2-methylbutan-2-yl dihydrogen phosphate]	–	39%	–
1 nM	6 nM	150 nM	CC(C)(O)Cn1cc(Nc2ncc(C3CN(c4nc5ccc(F)cc5o4)C3)nc2C(N)=O)cn1 [Example 28, 6-[1-(6-fluoro-1,3-benzoxazol-2-yl)azetidin-3-yl]-3-{[1-(2-hydroxy-2-methylpropyl)-1H-pyrazol-4-yl]amino}pyrazine-2-carboxamide]	17%	–	–
< 1 nM	1 nM	48 nM	Cn1cc(Nc2ncc(C3CN(c4nc5ccc(OCc6ccn(C)n6)cc5o4)C3)nc2C(N)=O)cn1 [Example 80, 3-[(1-methyl-1H-pyrazol-4-yl)amino]-6-(1-{6-[(1-methyl-1H-pyrazol-3-yl)methoxy]-1,3-benzoxazol-2-yl}azetidin-3-yl)pyrazine-2-carboxamide]	23%	–	–
1 nM	3 nM	940 nM	CN1CCC(Oc2ccc3nc(N4CC(c5cnc(Nc6cnn(C)c6)c(C(N)=O)n5)C4)oc3c2)C1=O (stereo not drawn) [Example 72, 6-(1-{6-[(1-methyl-2-oxopyrrolidin-3-yl)oxy]-1,3-benzoxazol-2-yl}azetidin-3-yl)-3-[(1-methyl-1H-pyrazol-4-yl)amino]pyrazine-2-carboxamide]	–	–	44%
4 nM	2 nM	2670 nM	Cn1cc(Nc2ncc(C3CN(c4nc5ccc(C(=O)NC6CC6)cc5o4)C3)nc2C(N)=O)cn1 [Example 53, 2-(3-{6-carbamoyl-5-[(1-methyl-1H-pyrazol-4-yl)amino]pyrazin-2-yl}azetidin-1-yl)-N-cyclopropyl-1,3-benzoxazole-6-carboxamide]	–	–	–
< 1 nM	1 nM	26 nM	Cn1cc(Nc2ncc(C3CN(c4nc5ccc(OCC(C)(C)CO)cc5o4)C3)nc2C(N)=O)cn1 [Example 61, 6-{1-[6-(3-hydroxy-2,2-dimethylpropoxy)-1,3-benzoxazol-2-yl]azetidin-3-yl}-3-[(1-methyl-1H-pyrazol-4-yl)amino]pyrazine-2-carboxamide]	–	–	–
2 nM	17 nM	2380 nM	Cn1cc(Nc2ncc(C3CN(c4nc5ccc(OCC6COC(C)(C)OC6)cc5o4)C3)nc2C(N)=O)cn1 [Example 51A, 6-(1-{6-[(2,2-dimethyl-1,3-dioxan-5-yl)methoxy]-1,3-benzoxazol-2-yl}azetidin-3-yl)-3-[(1-methyl-1H-pyrazol-4-yl)amino]pyrazine-2-carboxamide]	–	–	–
2 nM	4 nM	1850 nM	Cn1cc(Nc2ccc(C3CN(c4nc5ccc(OCC(C)(C)O)cc5o4)C3)nc2C(N)=O)cn1 [Example 85, 6-{1-[6-(2-hydroxy-2-methylpropoxy)-1,3-benzoxazol-2-yl]azetidin-3-yl}-3-[(1-methyl-1H-pyrazol-4-yl)amino]pyridine-2-carboxamide]	37%	–	–
< 1 nM	2 nM	140 nM	Cn1cc(Nc2ncc(C3CN(c4nc5ccc(/C=C/CO)cc5o4)C3)nc2C(N)=O)cn1 [Example 32A, 6-(1-{6-[(1E)-3-hydroxyprop-1-en-1-yl]-1,3-benzoxazol-2-yl}azetidin-3-yl)-3-[(1-methyl-1H-pyrazol-4-yl)amino]pyrazine-2-carboxamide]	–	–	–
4 nM	26 nM	6800 nM	CN(C)C(=O)COc1ccc2nc(N3CC(c4ccc(Nc5cnn(C)c5)c(C(N)=O)n4)C3)oc2c1 [Example 83, 6-(1-{6-[2-(dimethylamino)-2-oxoethoxy]-1,3-benzoxazol-2-yl}azetidin-3-yl)-3-[(1-methyl-1H-pyrazol-4-yl)amino]pyridine-2-carboxamide]	–	–	–
3 nM	6 nM	1750 nM	CN(C)C(=O)CCc1ccc2nc(N3CC(c4cnc(Nc5cnn(C)c5)c(C(N)=O)n4)C3)oc2c1 [Example 62, 6-(1-{6-[3-(dimethylamino)-3-oxopropyl]-1,3-benzoxazol-2-yl}azetidin-3-yl)-3-[(1-methyl-1H-pyrazol-4-yl)amino]pyrazine-2-carboxamide]	–	–	–
2 nM	4 nM	880 nM	Cn1cc(Nc2ncc(C3CN(c4nc5ccc(-c6cnn(CCO)c6)cc5o4)C3)nc2C(N)=O)cn1 [Example 90, 6-(1-{6-[1-(2-hydroxyethyl)-1H-pyrazol-4-yl]-1,3-benzoxazol-2-yl}azetidin-3-yl)-3-[(1-methyl-1H-pyrazol-4-yl)amino]pyrazine-2-carboxamide]	–	–	–
2 nM	3 nM	120 nM	COC(=O)c1ccc2nc(N3CC(c4cnc(Nc5cnn(C)c5)c(C(N)=O)n4)C3)oc2c1 [Example 13, methyl 2-(3-{6-carbamoyl-5-[(1-methyl-1H-pyrazol-4-yl)amino]pyrazin-2-yl}azetidin-1-yl)-1,3-benzoxazole-6-carboxylate]	–	–	–

Structure (SMILES)	IC50 (human MER (528-end))	IC50 (human AXL (473-end))	IC50 (TYRO3 (455-end))	% TGI (dose) (MC-38 cells; 10 mg/kg/d)	% TGI (dose) (MC-38 cells; 15 mg/kg/d)	% TGI (dose) (MC-38 cells; 30 mg/kg/d)
CC(C)(O)CCOc1ccc2nc(N3CC(c4cnc(Nc5cnn(COCC[Si](C)(C)C)c5)c(C(N)=O)n4)C3)oc2c1 [Example 96A, 6-{1-[6-(3-hydroxy-3-methylbutoxy)-1,3-benzoxazol-2-yl]azetidin-3-yl}-3-[(1-{[2-(trimethylsilyl)ethoxy]methyl}-1H-pyrazol-4-yl)amino]pyrazine-2-carboxamide]	11 nM	31 nM	1390 nM	–	–	–
